Source: ChEMBL document CHEMBL3046535, “Evaluation of some weed control treatments for long season weed control in maize (Zea mays L.) under zero and minimum tillage at Samaru, in Nigeria” (Crop Prot, 2008)

Tests used:
Format in all cases: organism-based
Zea mays [1] = experiment: Toxicity in Zea mays TZBSR (maize) assessed as crop stand count at 1.5 kg a.i/ha applied post-emergence after ridgining at minimum tillage conditions using Knapsack sprayer measured 6 weeks post treatment; conditions: in vivo, other, 1008 h
Zea mays [2] = experiment: Toxicity in Zea mays TZBSR (maize) assessed as crop injury at 1.5 kg a.i/ha applied post-emergence after ridgining at minimum tillage conditions using Knapsack sprayer; conditions: in vivo, other
Zea mays [3] = experiment: Toxicity in Zea mays TZBSR (maize) assessed as crop vigour at 1.5 kg a.i/ha applied post-emergence after ridgining at minimum tillage conditions using Knapsack sprayer; conditions: in vivo, other
Zea mays [4] = experiment: Toxicity in Zea mays TZBSR (maize) assessed as plant height at 1.5 kg a.i/ha applied post-emergence after ridgining at minimum tillage conditions using Knapsack sprayer measured 9 weeks post treatment; conditions: in vivo, other, 1512 h

Row | SMILES | Activity (Zea mays [1]) | Activity (Zea mays [2]) | Activity (Zea mays [3]) | Activity (Zea mays [4])
1 | O=C(O)COc1ccc(Cl)cc1Cl [2,4-DICHLOROPHENOXYACETIC ACID] | Non-toxic | Non-toxic | Non-toxic | 3.33 m
2 | CCNc1nc(Cl)nc(NC(C)C)n1 [ATRAZINE] | – | Non-toxic | Non-toxic | 3.35 m
